The values below are quoted from earlier work in patent publication US20140288899A1, “C[…] OF BINDING FREE ENERGY, C[…] OF BINDING FREE ENERGY, PROGRAM, SCREENING METHOD OF COMPOUND” (FUJITSU LIMITED, priority 2013, published 2014).

The structures appear in SMILES notation.

Data set [1] addresses T1, FK506 BINDING PROTEIN (Homo sapiens, UniProt P62942). As to conditions: experimental value disclosed in Holt et al., J. Am. Chem. Soc. 1993, 115, 9925-9938.
Data set [2] deals with T1, FK506 BINDING PROTEIN. To be noted: calculation value of Wang et al., Biophysical Journal Vol. 91, 2798-2814; restriction with a spring.

T1 sequence (P62942 whole entry): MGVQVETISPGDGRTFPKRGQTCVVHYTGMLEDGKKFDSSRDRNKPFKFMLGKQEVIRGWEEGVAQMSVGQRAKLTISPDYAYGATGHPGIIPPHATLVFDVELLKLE

On to `CCC(C)(C)C(=O)C(=O)N1CCCC[C@H]1C(=O)O[C@H](CCc1ccccc1)c1ccccc1` [1fkg, 1,3-DIPHENYL-1-PROPYL-1-(3,3-DIMETHYL-1,2-DIOXYPENTYL)-2-PIPERIDINE CARBOXYLATE], for which the “binding free energy, experimental value” on FK506 BINDING PROTEIN [1] is -10.9 kcal/mol. The “binding free energy, calculation result of Comparative Example” value at FK506 BINDING PROTEIN [2] is -10.3 kcal/mol.
